Consider 10 molecules from article PMC6761529 (Antimicrobial Agents and Chemotherapy, 2019).

Where “and” joins values, the source holds several entries; their conditions need not be identical. Equal entries are not always repeated. Where two headings read alike, the source gives them in different places. Where only a bound is given, the exact number is not on record here.

Data set [1] has as its target T1, KPC-2 (Klebsiella pneumoniae, UniProt Q9F663). The conditions noted are these: after 24 hours of incubation; cited from earlier work.
Data set [2] addresses T2, CTX-M-15 (Escherichia coli, UniProt Q9EXV5). As to the kind of experiment: biochemical.
Experimental: (§4) Kinetic parameters were calculated and analyzed using GraphPad Prism 6.
(§5) Diazabicyclooctanes were dissolved in DMSO (100 mM) and diluted to the desired concentration in 10 mM HEPES (pH 7.5) and 150 mM NaCl.
The target in data set [3] is T3, L2 (Stenotrophomonas maltophilia, UniProt Q9RBQ1). As to the kind of experiment: IC50, nitrocefin hydrolysis after 10-minute preincubation, L2. Type of data set: biochemical.
Experimental: as §4, §5
Data set [4] relates to S. maltophilia K279a. Briefly: MIC broth microdilution, S. maltophilia K279a. Type of data set: cell-based. The conditions noted are these: for MIC: Stenotrophomonas maltophilia, K279A, read-out: MIC of β-lactam. As for the experimental part:
S. maltophilia K279a is a well-characterized isolate from Bristol, United Kingdom, and was obtained as previously reported ([46]).
(§1) MIC values were determined using broth microdilution, in triplicate, in cation-adjusted Mueller-Hinton broth (Sigma) according to the Clinical and Laboratory Standards Institute (CLSI) guidelines ([47]). […] Plates were incubated overnight at 37°C for 18 to 24 h, and the absorbance at 600 nm was read using a POLARstar Omega (BMG LabTech) plate reader.

Data set [5] has as its system S. maltophilia K279a. The conditions noted are these: with avibactam; cited from earlier work.
Data set [6] has as its system K. pneumoniae Ecl8 pUBYT KPC-3. Briefly: microbe, parasite or virus in culture. The class given is cell-based. The conditions noted are these: Klebsiella pneumoniae.
Text: (§2) The pUBYT vector containing blaKPC-3 under the ISKpn7 promoter was used as a template for site-directed mutagenesis to create pUBYT containing blaKPC-2 and blaKPC-4 with the same promoter ([45]). The single point mutation in KPC-2 (Y274H) and double point mutations in KPC-4 (P104R, V240G) were introduced using a QuikChange Lightning site-directed mutagenesis kit (Agilent Genomics) with the primers specified in Table S1 in the supplemental material. Klebsiella pneumoniae Ecl8 was transformed with the resulting pUBYT constructs via electroporation.
as §1

The subject of data set [7] is K. pneumoniae Ecl8 pUBYT KPC-4. Briefly: microbe, parasite or virus in culture. Type of data set: cell-based. The conditions noted are these: Klebsiella pneumoniae.
Text: as §2, §1

In data set [8] the test system is K. pneumoniae Ecl8 pUBYT KPC-2. Briefly: microbe, parasite or virus in culture. The class given is cell-based. The conditions noted are these: Klebsiella pneumoniae.
Text: as §2, §1

The subject of a further data set is K. pneumoniae Ecl8 pUBYT. Briefly: MIC broth microdilution, K. pneumoniae Ecl8 pUBYT (empty vector). The class given is cell-based. The conditions noted are these: Klebsiella pneumoniae, ECL8PUBYT, read-out: MIC of β-lactam.
Text: as §2, §1

The subject of data set [9] is KPC variants expressed in K. pneumoniae Ecl8. Type of data set: cell-based, Klebsiella pneumoniae. The note with it: in the presence of 4 mg liter^−1 relebactam.
Text: as §2, §1

Data set [10] addresses T4, KPC-4 (Klebsiella pneumoniae, UniProt Q9F663, P103R/V239G). Briefly: Steady-state nitrocefin hydrolysis, KPC-4. Type of data set: biochemical. The conditions noted are these: nitrocefin as substrate; standard error in parentheses, n = 3.
Experimental: as §4
Data set [11] deals with T1, KPC-2. Type of data set: biochemical. The note with it: nitrocefin as substrate; standard error in parentheses, n = 3.
Experimental: as §4
Data set [12] has as its target T5, KPC-3 (Klebsiella pneumoniae, UniProt Q9F663, H272Y). The class given is biochemical. The conditions noted are these: nitrocefin as substrate; standard error in parentheses, n = 3.
Experimental: as §4
Data set [13] has as its target T2, CTX-M-15. As to the kind of experiment: Direct competition of relebactam and nitrocefin (Kiapp, k2/K), CTX-M-15. Type of data set: biochemical.
Experimental: as §4
(2) E+I⇌k−1k1E:I⇌k−2k2E-I→k3E-I′→k4E+P
(§6) Complete progress curves were fitted to equation 5 in order to obtain values for kobs (pseudo-first-order rate constant for inactivation).(5) A=vf*t+(v0−vf)*((1−e^−kobs*t)/kobs)+A0
(§7) ([I]) according to equation 6, with the uncorrected value for k2/K (k2/K′) then equal to the slope of the line.(6) kobs=k−2+k2/K^′*[I]
Data set [14] has as its target Pseudomonas-derived cephalosporinase-3 (PDC-3). The note with it: read-out: Kiapp; cited from earlier work.
The target in data set [15] is T5, KPC-3. The protocol: (§3) Final enzyme concentrations were as follows: 50 nM KPC-2, 5 nM KPC-3, 50 nM KPC-4, 50 pM CTX-M-15, and 50 pM L2. Complete progress curves were collected, and the results fitted to equation 8 to obtain koff.(8) A=vf*t+(v0−vf)*(1−e^−kofft)/koff+A0
Data set [16] deals with T3, L2. The note with it: recombinant enzyme. As for the experimental part: as §3
The target of data set [17] is T4, KPC-4. The protocol: as §3
Data set [18] addresses T2, CTX-M-15. The note with it: recombinant enzyme. As for the experimental part:
as §3

The target of data set [19] is T1, KPC-2. The conditions noted are these: recombinant enzyme. As for the experimental part:
as §3

The target of data set [20] is T3, L2. Briefly: Direct competition of relebactam and nitrocefin (Kiapp, k2/K), L2. The class given is biochemical. The conditions noted are these: Dixon plot, no preincubation; standard deviation in parentheses.
Experimental: as §4
(2) E+I⇌k−1k1E:I⇌k−2k2E-I→k3E-I′→k4E+P
as §6, §7
The target of the next data set is OXA-48. Details: method as in PMID 29627985. The conditions noted are these: cited from earlier work.
In data set [21] the target is T1, KPC-2. Details: method as in PMID 29627985. The note with it: cited from earlier work.
In data set [22] the target is T1, KPC-2. The conditions noted are these: cited from earlier work.
Data set [23] has as its system O=C(Cc1cccs1)N[C@@H]1C(=O)N2C(C(=O)O)=C(/C=C/c3ccc([N+](=O)[O-])cc3[N+](=O)[O-])CS[C@H]12. Briefly: purified protein, by the assay type. The conditions noted are these: other: nitrocefin as substrate; standard error in parentheses, n = 3; pH 7.5; 25.0 °C.
[24] abbreviates: ECL8PUBYTKPC3, read-out: MIC of β-lactam, no inhibitor present.
The mark [25] stands for this setting: ECL8PUBYTKPC4, read-out: MIC of β-lactam, no inhibitor present.
[26] abbreviates: ECL8PUBYTKPC2, read-out: MIC of β-lactam, no inhibitor present.

Broadly, the IC50 is the concentration needed to halve the response being measured. A low value points to inhibition by little substance. In the case of `NC(=O)[C@@H]1CC[C@@H]2CN1C(=O)N2OS(=O)(=O)O` [Avibactam, avibactam], the KPC-2 remaining acylated on KPC-2 [1] is 10%. Further, the IC50 on CTX-M-15 [2] came to 3.4 nM; against L2 [3] it was 15 nM.
For the molecule `C[C@H]1[C@H](NC(=O)/C(=N\OC(C)(C)C(=O)O)c2csc(N)n2)C(=O)N1S(=O)(=O)O` [Aztreonam, aztreonam], the MIC in the data set on S. maltophilia K279a [4] (+REL (relebactam, 4 mg/liter)) was 8 µg/mL; in the data set on S. maltophilia K279a [4] (no inhibitor present), above 256 µg/mL. In addition, the “aztreonam MIC” value is 8 µg/mL with S. maltophilia K279a [4] (addition of relebactam), 256 µg/mL with S. maltophilia K279a [4] (without inhibitor) and 2 µg/mL with S. maltophilia K279a [5].
`CC(C)(O/N=C(\C(=O)N[C@@H]1C(=O)N2C(C(=O)[O-])=C(C[n+]3ccccc3)CS[C@H]12)c1csc(N)n1)C(=O)O` [Ceftazidime, ceftazidime]: the MIC in [6] (ECL8PUBYTKPC3, read-out: MIC of β-lactam, +AVI (avibactam, 4 mg/liter)) is below 0.125 µg/mL; in [6] (setting [24]) it was 128 µg/mL; in data set [7] (ECL8PUBYTKPC4, read-out: MIC of β-lactam, +AVI (avibactam, 4 mg/liter)), 1 µg/mL; in [7] (setting [25]), 128 µg/mL; in data set [8] (ECL8PUBYTKPC2, read-out: MIC of β-lactam, +AVI (avibactam, 4 mg/liter)), 0.125 µg/mL; in data set [8] (setting [26]), 16 µg/mL. Besides, the MIC in the data set on K. pneumoniae Ecl8 pUBYT was below 0.125 µg/mL; in the data set with S. maltophilia K279a [4] (+AVI (avibactam, 4 mg/liter)), 8 µg/mL; with S. maltophilia K279a [4] (no inhibitor present), 16 µg/mL.
On to `C[C@@H](O)[C@H]1C(=O)N2C(C(=O)O)=C(SCCN=CN)C[C@H]12` [Imipenem, imipenem], for which the MIC in data set [6] (ECL8PUBYTKPC3, read-out: MIC of β-lactam, +REL (relebactam, 4 mg/liter)) is below 0.125 µg/mL; in [6] (setting [24]) it was 16 µg/mL; in data set [7] (ECL8PUBYTKPC4, read-out: MIC of β-lactam, +REL (relebactam, 4 mg/liter)), 0.125 µg/mL; in [7] (setting [25]), 0.5 µg/mL; in [8] (ECL8PUBYTKPC2, read-out: MIC of β-lactam, +REL (relebactam, 4 mg/liter)), 0.5 µg/mL; in data set [8] (setting [26]) it was 64 µg/mL. The MIC in the data set with K. pneumoniae Ecl8 pUBYT is below 0.0625 µg/mL; in the data set on S. maltophilia K279a [4] (+REL (relebactam, 4 mg/liter)), 64 µg/mL; with S. maltophilia K279a [4] (no inhibitor present), 128 µg/mL. Besides, in [9], the “imipenem MICs in all KPC producers” value is at most 0.5 mg/L.
Turning to `O=C(Cc1cccs1)N[C@@H]1C(=O)N2C(C(=O)O)=C(/C=C/c3ccc([N+](=O)[O-])cc3[N+](=O)[O-])CS[C@H]12` [Nitrocefin, nitrocefin], the Km on KPC-4 [10] turned out to be 59 µM; at KPC-2 [11], 18.3 µM; at KPC-3 [12] it was 36 µM. Also, the kcat at KPC-4 [10] is recorded as 166 (44) s-1; on KPC-2 [11], 613 (9) s-1; on KPC-3 [12], 88 (8) s-1.
As to `O=C(NC1CCNCC1)[C@@H]1CC[C@@H]2CN1C(=O)N2OS(=O)(=O)O` [Relebactam, relebactam], the Ki on CTX-M-15 [13] is 21000 nM; in [14], 3400 nM; at L2 [20] it was 3000 nM and 2700 nM. Also, the “reduction in off-rate compared with KPC-2” value at KPC-3 [15] (KPC-3 vs KPC-2) and on KPC-4 [17] (KPC-4 vs KPC-2) was around 4.5 fold in each case. Besides, the t1/2 on KPC-3 [15] (recombinant enzyme) is given as 58 min; on L2 [16], 21 min; on KPC-4 [17] (recombinant enzyme), 61 min; at CTX-M-15 [18] it was 30 min; on KPC-2 [19] it was 13 min. The IC50 against CTX-M-15 [2] amounted to 400 nM; against L2 [3], 470 nM.
For the molecule `N#C[C@@H]1CC[C@@H]2CN1C(=O)N2OS(=O)(=O)O` [WCK-4234], the Ki at OXA-48 is 290 nM. For the same molecule, on KPC-2 [21], the off rate was 0.00045 s⁻¹.
Consider `O=C(NNC(=O)[C@@H]1CC[C@@H]2CN1C(=O)N2OS(=O)(=O)O)[C@@H]1CCCNC1` [WCK-5107, zidebactam], for which, at KPC-2 [22], the “Ki value, fold higher than avibactam” value was 5 fold and the “Ki value, fold higher than relebactam” value is 2 fold.
Broadly, the kcat/Km is the second-order rate constant that governs catalysis at low substrate concentration. CTX-M-15 (Escherichia coli): in [23], the Km was 63 (11) µM, the kcat is reported as 312 (8) s-1 and the kcat/Km came to 5e+06 M⁻¹ s⁻¹.
The like results for L2 (Stenotrophomonas maltophilia) were, in that order, 206 (27) µM, 813 (41) s-1 and 4e+06 M⁻¹ s⁻¹.
